In publication PMC4441825 (Chemical research in toxicology, 2013):

Molecular target: regulator of G-protein signaling 4 (RGS4) (Rattus norvegicus, UniProt P49799)
Experiment: LC-ESI-MS of intact protein
Format: biochemical

regulator of G-protein signaling 4 (RGS4), sequence (P49799 52-205): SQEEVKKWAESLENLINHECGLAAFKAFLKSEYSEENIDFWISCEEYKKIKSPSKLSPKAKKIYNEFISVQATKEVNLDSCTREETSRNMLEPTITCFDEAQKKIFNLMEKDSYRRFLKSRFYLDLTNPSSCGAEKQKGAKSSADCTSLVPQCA
regulator of G-protein signaling 4 (RGS4), sequence (P63096 2-354 R178M/A326S partner): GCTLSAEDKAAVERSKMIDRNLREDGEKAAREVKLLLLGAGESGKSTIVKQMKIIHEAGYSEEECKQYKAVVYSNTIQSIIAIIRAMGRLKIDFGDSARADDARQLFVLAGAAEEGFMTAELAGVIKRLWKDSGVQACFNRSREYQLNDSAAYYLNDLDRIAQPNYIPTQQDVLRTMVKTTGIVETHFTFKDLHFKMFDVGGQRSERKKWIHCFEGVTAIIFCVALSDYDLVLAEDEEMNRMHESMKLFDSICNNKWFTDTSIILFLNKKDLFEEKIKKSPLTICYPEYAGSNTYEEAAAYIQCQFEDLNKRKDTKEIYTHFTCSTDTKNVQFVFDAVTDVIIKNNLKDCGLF

Question: With `CCCCCC(O)C=CC=O` (stereo not shown) [4HNE, 4-hydroxy-2-nonenal] as the molecule, how does the IC50 read?
Answer: The IC50 was ~7.5 mM.
